Measured values from patent publication US9867798B2, “Ladostigil therapy for immunomodulation” (priority 2012, dated 2018).

Test system: IL-1β and MPO in colon
Experiment: Cytokines and myeloperoxidase in colon of DSS-treated mice
Assay type: in vivo
Conditions: 8th day of DSS ingestion, 5 vs 10 mg/kg
Description: TNF-α, IL-6, and IL-1β levels in homogenized colon were measured by means of a BioLegend ELISA Mouse kit. One cm of colon was homogenized in ice-cold PBS buffer containing protease inhibitor cocktail (Sigma, St. Louis, Mo., USA; dilution 1:100) using a Polytron homogenizer, and then centrifuged for 15 min at 14,000 rpm at 4° C. Supernatants were diluted 1:5 in diluent buffer supplied in the kit and applied to 96-well MaxiSorb Elisa plates according to manufacturer's protocol. Total protein concentration in the tissue supernatant was measured by means of a BCA kit. Levels of cytokines are expressed as pg/mg total tissue protein.
Neutrophil infiltration was monitored by measuring myeloperoxidase (MPO) activity in colon segments according to the protocol described by Bradley (1982) in 96-well micro-titer plates by mixing 10 μl of the supernatant with 290 μl of o-dianisidine dihydrochloride solution. Data were interpolated from a MPO standard curve. MPO activity was expressed as units per μg total protein measured in the sample by Pierce BCA Protein Assay Kit as described above.

Compound: C#CCN[C@@H]1CCc2ccc(OC(=O)N(C)CC)cc21 [Ladostigil, R(+)-6-(N-methyl, N-ethyl-carbamoyloxy)-N′-propargyl-1-aminoindan]
- Reduction of IL-1β levels and MPO activity in colon: 5 mg/kg was more effective than 10 mg/kg
